Data on 14 compounds can be found in patent US9771333B2, “Quinazoline derivatives as TAM family kinase inhibitors” (SIGNALCHEM LIFESCIENCES CORP., priority 2013, dated 2017).

Common to all, as to assay type: biochemical
One experiment has as its target T1, human Axl (Homo sapiens, UniProt P30530).
T1 construct: GST (N); made in house; host or cells: Sf9 insect cells (baculovirus)
T1 sequence (P30530 473-894 limits assumed): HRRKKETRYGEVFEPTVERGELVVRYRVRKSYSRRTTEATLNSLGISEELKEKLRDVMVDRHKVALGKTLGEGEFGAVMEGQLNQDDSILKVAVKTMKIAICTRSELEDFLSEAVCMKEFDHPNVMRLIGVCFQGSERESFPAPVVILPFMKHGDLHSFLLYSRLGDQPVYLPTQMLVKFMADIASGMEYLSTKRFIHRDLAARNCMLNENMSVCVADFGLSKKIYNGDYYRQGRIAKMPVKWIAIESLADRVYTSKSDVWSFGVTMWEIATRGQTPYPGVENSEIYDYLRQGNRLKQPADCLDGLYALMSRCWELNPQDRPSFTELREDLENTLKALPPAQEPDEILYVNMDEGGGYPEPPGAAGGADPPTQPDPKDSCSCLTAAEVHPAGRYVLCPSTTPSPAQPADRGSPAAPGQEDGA
Briefly: Kinase enzymatic activity assay (33P-radiolabeled phosphate transfer), Axl. Conditions: recombinant human Axl (473-end), poly(4:1 glu:tyr) substrate, 30 minutes. From the text: (§1) The identification of compounds of the invention as Tyro3, Axl or Mer inhibitors was readily accomplished using the recombinant human Tyro3, Axl and Mer proteins and employing the ^33P-radiolabeled phosphate transfer assay for which the procedure is known to someone skilled in the art or as described in Example 9.
(§2) Recombinant human Tyro3 (455-end, the gene accession number NM_006293), human Axl (473-end, the gene accession number NM_021913) and human Mer (578-872, the gene accession number NM_006343) were independently expressed by baculovirus in Sf9 insect cells using an N-terminal GST tag. The recombinant proteins were stored at −70° C. in a medium containing 50 mM Tris-HCl, pH 7.5, 150 mM NaCl, 10 mM glutathione, 0.1 mM EDTA, 0.25 mM DTT, 0.1 mM PMSF and 25% glycerol. The recombinant proteins were aliquoted into smaller quantities after centrifugation to avoid repeated handling and multiple freeze/thaw cycles for the most favorable performance.
(§3) Kinase Assay Buffer: This buffer solution consisted of the following components: 25 mM MOPS, pH 7.2, 12.5 mM β-glycerol-phosphate, 25 mM MgCl2, 5 mM EGTA, 2 mM EDTA and DTT 0.25 mM which was added prior to use.
(§4) Kinase Dilution Buffer: Kinase Assay Buffer was diluted at a 1:4 ratio (5× dilution) with distilled water.
(§5) [^33P]-ATP assay cocktail: In a designated radioactive working area, a 250 μM [^33P]-ATP assay cocktail was prepared by the addition of the following components: 150 μL of 10 mM ATP stock solution, 100 μL [^33P]-ATP (1 mci/100 μL), and 5.75 mL of kinase assay buffer. This solution was stored in 1 mL aliquots at −20° C.
(§6) ATP stock solution (10 mM): The ATP stock solution was prepared by dissolving 55 mg of ATP in 10 mL of kinase assay buffer. It was stored in 200 μL aliquots at −20° C.
(§7) Active Kinase Stock Solution: The active recombinant kinase protein (0.1 μg/μL) was diluted with Kinase Dilution Buffer and the activity was assayed using a serial dilution method. The specific activity is expressed in nmoL/min/mg.
(§8) Substrates: poly(4:1 glu:tyr) is the substrate used for each kinase Tyro3, Axl and Mer: The peptide substrate was dissolved in water to give the final concentration of 1 mg/mL.
(§9) Test compound solution: Test compound was dissolved in DMSO to obtain a 10 mM solution. The assay solution was prepared by adding 5 μL of this solution to […] of 10% DMSO/water to obtain the final concentration of 50 μM.
(§10) The enzymatic activity of all three kinases was determined as follows. Using a 96-well plate, the wells were divided into three categories: Blank wells, […] and Test wells. In Test wells, 5 μL of the test compound solution and 5 μL of the substrate solution were added. In Control wells, 5 μL of 10% DMSO/water and 5 μL of the substrate solution were added. In Blank wells, 10 μL of 10% DMSO/water was added. To each well was added 10 μL of Active Kinase Stock Solution to make up the volume in each well to 20 μL. All test samples, controls and blanks were run in duplicate. The reaction was initiated by the addition of 5 μL of [^33P]-ATP assay cocktail, bringing the final volume up to 25 μL in every well. The mixture was incubated at room temperature for 30 minutes. The reaction was terminated by transferring 10 μL of the reaction mixture into a Millipore MultiScreen filter plate (cat. number MSPHN6B50). The filter plate was washed in a 1% phosphoric acid solution with constant gentle shaking for 15 minutes and this step was repeated once. After the plate was dried in air, scintillation fluid was added to each well and the radioactivity in each well in CPM was counted by a Microbeta TriLux. The corrected CPM in each test well was determined by subtracting the average value of Blank well values. Percentage of inhibition of the kinase enzymatic activity by the test compound was determined using the following formula: […]
(§11) The IC50 values were determined in a similar way following a serial dilution of the test compound. […]

For a further experiment, the target named is T2, human Tyro3 (Homo sapiens, UniProt Q06418).
T2 construct: GST (N); made in house; host or cells: Sf9 insect cells (baculovirus)
T2 sequence (Q06418 455-890 limits assumed): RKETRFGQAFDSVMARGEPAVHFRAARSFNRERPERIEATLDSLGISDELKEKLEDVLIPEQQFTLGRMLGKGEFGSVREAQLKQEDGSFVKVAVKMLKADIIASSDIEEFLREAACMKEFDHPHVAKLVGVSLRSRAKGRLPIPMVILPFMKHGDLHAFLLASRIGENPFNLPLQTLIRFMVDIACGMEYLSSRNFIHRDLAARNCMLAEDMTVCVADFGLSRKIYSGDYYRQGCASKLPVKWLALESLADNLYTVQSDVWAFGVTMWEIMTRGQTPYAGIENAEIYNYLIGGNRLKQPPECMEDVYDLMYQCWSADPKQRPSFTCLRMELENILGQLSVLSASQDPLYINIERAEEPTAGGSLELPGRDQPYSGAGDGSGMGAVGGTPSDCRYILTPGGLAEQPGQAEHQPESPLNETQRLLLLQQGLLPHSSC
In words: Kinase enzymatic activity assay (33P-radiolabeled phosphate transfer), Tyro3. The note with it: recombinant human Tyro3 (455-end), poly(4:1 glu:tyr) substrate, 30 minutes.
Source text: as §1, §2, §3, §4, §5, §6, §7, §8, §9, §10, §11

In another experiment the target is T3, human Mer (Homo sapiens, UniProt Q12866).
T3 construct: GST (N); made in house; host or cells: Sf9 insect cells (baculovirus)
T3 sequence (Q12866 578-872): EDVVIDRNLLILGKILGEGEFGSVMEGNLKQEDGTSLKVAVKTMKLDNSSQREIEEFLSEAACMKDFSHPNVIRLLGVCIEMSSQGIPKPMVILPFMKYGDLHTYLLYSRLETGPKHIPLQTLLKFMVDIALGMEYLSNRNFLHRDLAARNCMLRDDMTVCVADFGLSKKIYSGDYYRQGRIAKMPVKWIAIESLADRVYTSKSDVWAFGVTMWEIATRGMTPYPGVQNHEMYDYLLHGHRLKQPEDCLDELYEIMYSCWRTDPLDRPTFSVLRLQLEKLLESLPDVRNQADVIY
In words: Kinase enzymatic activity assay (33P-radiolabeled phosphate transfer), Mer. The note with it: recombinant human Mer (578-872), poly(4:1 glu:tyr) substrate, 30 minutes.
Source text: as §1, §2, §3, §4, §5, §6, §7, §8, §9, §10, §11

By IC50 is commonly meant the concentration at which inhibition is half-maximal. Turning to `CC1(C)OC[C@H](COc2cc(OC3CCOCC3)c3c(Oc4ccc(F)cc4Cl)ncnc3c2)O1` [Example 2.9, (S)-4-(2-chloro-4-fluorophenoxy)-7-((2,2-dimethyl-1,3-dioxolan-4-yl)methoxy)-5-((tetrahydro-2H-pyran-4-yl)oxy)quinazoline], the IC50 at human Axl, at human Tyro3 and at human Mer was 1000 to 10000 nM throughout.

In the case of `COCCN1CCN(c2cc(OC3CCOCC3)c3c(Oc4ccc(F)cc4Cl)ncnc3c2)CC1` [Example 2.10, 4-(2-chloro-4-fluorophenoxy)-7-(4-(2-methoxyethyl)piperazin-1-yl)-5-((tetrahydro-2H-pyran-4-yl)oxy)quinazoline], the values for the IC50 at human Axl, on human Tyro3 and at human Mer were 1000 to 10000 nM, less than 500 nM and 500 to 1000 nM, respectively.

Regarding `COc1cc(OCCCN2CCOCC2)cc2ncnc(Oc3ccc(F)cc3Cl)c12` [Example 2.17, 4-(3-((4-(2-chloro-4-fluorophenoxy)-5-methoxyquinazolin-7-yl)oxy)propyl)morpholine], the IC50 is 1000 to 10000 nM on human Axl, less than 500 nM at human Tyro3 and 1000 to 10000 nM at human Mer.

`CN(C)CCOCCOc1cc(OC2CCOCC2)c2c(Oc3ccc(F)cc3Cl)ncnc2c1` [Example 2.2, 2-(2-((4-(2-chloro-4-fluorophenoxy)-5-((tetrahydro-2H-pyran-4-yl)oxy)quinazolin-7-yl)oxy)ethoxy)-N,N-dimethylethanamine]: the IC50 was 1000 to 10000 nM on human Axl, less than 500 nM at human Tyro3 and less than 500 nM at human Mer.

For `Fc1ccc(Oc2ncnc3cc(OCCN4CCOCC4)cc(OC4CCOCC4)c23)c(Cl)c1` [Example 2.1, 4-(2-((4-(2-chloro-4-fluorophenoxy)-5-((tetrahydro-2H-pyran-4-yl)oxy)-quinazolin-7-yl)oxy)ethyl)morpholine], the IC50 at human Axl lay within 1000 to 10000 nM; on human Tyro3 it was 1000 to 10000 nM; on human Mer, 500 to 1000 nM.

As to `COCCOc1cc(OCCN2CCN(C)CC2)cc2ncnc(Sc3ccc(F)cc3)c12` [Example 4.1, 4-((4-fluorophenyl)thio)-5-(2-methoxyethoxy)-7-(2-(4-methylpiperazin-1-yl)ethoxy)quinazoline], the IC50 on human Axl is greater than 10000 nM; at human Tyro3, 500 to 1000 nM; on human Mer it was greater than 10000 nM.

As to `OC[C@@H](O)COc1cc(OC2CCOCC2)c2c(Oc3ccc(F)cc3Cl)ncnc2c1` [Example 5, (R)-3-((4-(2-chloro-4-fluorophenoxy)-5-((tetrahydro-2H-pyran-4-yl)oxy)quinazolin-7-yl)oxy)propane-1,2-diol], the values for the IC50 at human Axl, on human Tyro3 and on human Mer were 1000 to 10000 nM, 500 to 1000 nM and 500 to 1000 nM, respectively.

With `CN1CCC(CCOc2cc(OC3CCOCC3)c3c(Nc4nc(C(F)(F)F)cs4)ncnc3c2)CC1` [Example 2.45, N-(7-(2-(1-methylpiperidin-4-yl)ethoxy)-5-((tetrahydro-2H-pyran-4-yl)oxy)quinazolin-4-yl)-4-(trifluoromethyl)thiazol-2-amine], the IC50 on human Axl is less than 500 nM; on human Tyro3, greater than 10000 nM; on human Mer, 1000 to 10000 nM.

In the case of `CN1CCN(CCOc2cc(OC3CCOCC3)c3c(OC4CCCCC4)ncnc3c2)CC1` [Example 3.4, 4-(cyclohexyloxy)-7-(2-(4-methylpiperazin-1-yl)ethoxy)-5-((tetrahydro-2H-pyran-4-yl)oxy)quinazoline], the IC50 at human Axl was 500 to 1000 nM; on human Tyro3, 1000 to 10000 nM; on human Mer it was 500 to 1000 nM.

As to `CN1CCN(CCOc2cc(OC3CCOCC3)c3c(Oc4ccccc4)ncnc3c2)CC1` [Example 3.2, 7-(2-(4-methylpiperazin-1-yl)ethoxy)-4-phenoxy-5-((tetrahydro-2H-pyran-4-yl)oxy)quinazoline], the IC50 is less than 500 nM on human Axl, less than 500 nM at human Tyro3 and 1000 to 10000 nM on human Mer.

As for `Cc1cc(Nc2ncnc3cc(OCCCN4CCOCC4)cc(OC4CCOCC4)c23)on1` [Example 2.35, 3-methyl-N-(7-(3-morpholinopropoxy)-5-((tetrahydro-2H-pyran-4-yl)oxy)quinazolin-4-yl)isoxazol-5-amine], the IC50 at human Axl was 1000 to 10000 nM; on human Tyro3, greater than 10000 nM; at human Mer, 1000 to 10000 nM.

In the case of `CN1CCN(CCOc2cc(OC3CCOCC3)c3c(Oc4cccc(C(=O)NCc5ccccc5)c4)ncnc3c2)CC1` [Example 2.32, N-benzyl-3-((7-(2-(4-methylpiperazin-1-yl)ethoxy)-5-((tetrahydro-2H-pyran-4-yl)oxy)quinazolin-4-yl)oxy)benzamide], the figures for the IC50 at human Axl, on human Tyro3 and on human Mer were 1000 to 10000 nM, greater than 10000 nM and greater than 10000 nM, respectively.

As for `CN1CCN(CCOc2cc(OC3CCOCC3)c3c(Oc4cccc(CC(=O)NCc5ccccc5)c4)ncnc3c2)CC1` [Example 2.33, N-benzyl-2-(3-((7-(2-(4-methylpiperazin-1-yl)ethoxy)-5-((tetrahydro-2H-pyran-4-yl)oxy)quinazolin-4-yl)oxy)phenyl)acetamide], the IC50 at human Axl was 1000 to 10000 nM; at human Tyro3 it was 500 to 1000 nM; at human Mer, greater than 10000 nM.

In the case of `CN(C)CCC1CCN(c2cc(OC3CCOCC3)c3c(Nc4nc(C(F)(F)F)cs4)ncnc3c2)CC1` [Example 2.44, N-(7-(4-(2-(dimethylamino)ethyl)piperidin-1-yl)-5-((tetrahydro-2H-pyran-4-yl)oxy)quinazolin-4-yl)-4-(trifluoromethyl)thiazol-2-amine], the IC50 on human Axl is less than 500 nM; at human Tyro3, 1000 to 10000 nM.
